In PubChem BioAssay AID1259411 (Chemical Carcinogenesis Research Information System (CCRIS), 2018) one finds carcinogen call data, which are given here for four compounds.

Activity calls are given as the source filed them. The rule behind the calls is not given here.

This data set deals with rodent carcinogenicity bioassays, tumor incidence. Kind of data set: CCRIS carcinogenicity studies. The method, boiled down: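 NCI-built, expert-reviewed records of carcinogenicity and related test outcomes (mutagenicity, tumor promotion/inhibition) compiled from published and report sources, historical span 1985-2011, not updated.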

Regarding `CBr`, the carcinogen call is, setting by setting: (Species: DOG, Strain/Sex: BEAGLE/FEMALE, Route: ORAL, Dose: 0, 0.07, 0.12, 0.27 MG/KG/D IN DIET FOR 1 YR (STUDY DURATION: 1 YR), Dose: 0, 0.07, 0.12, 0.27 MG/KG/D IN DIET FOR 1 YR (STUDY DURATION: 1 YR)) “inactive; negative”; (Species: DOG, Strain/Sex: BEAGLE/MALE, Route: ORAL, Dose: 0, 0.06, 0.13, 0.28 MG/KG/D IN DIET FOR 1 YR (STUDY DURATION: 1 YR), Dose: 0, 0.06, 0.13, 0.28 MG/KG/D IN DIET FOR 1 YR (STUDY DURATION: 1 YR)) “inactive; negative”; (Species: MOUSE, Strain/Sex: B6C3F1/FEMALE, Route: INHALATION, Dose: 0, 10, 33, 100 PPM 6 HR/D 5 D/WK FOR UP TO 103 WK, DOSING IN 100 PPM GROUP DISCONTINUED AFTER 20 WK (STUDY DURATION: 104, Dose: 0, 10, 33, 100 PPM 6 HR/D 5 D/WK FOR UP TO 103 WK, DOSING IN 100 PPM GROUP DISCONTINUED AFTER 20 WK (STUDY DURATION: 104) “inactive; negative”; (Species: MOUSE, Strain/Sex: B6C3F1/MALE, Route: INHALATION, Dose: 0, 10, 33, 100 PPM 6 HR/D 5 D/WK FOR UP TO 103 WK, DOSING IN 100 PPM GROUP DISCONTINUED AFTER 20 WK (STUDY DURATION: 104, Dose: 0, 10, 33, 100 PPM 6 HR/D 5 D/WK FOR UP TO 103 WK, DOSING IN 100 PPM GROUP DISCONTINUED AFTER 20 WK (STUDY DURATION: 104) “inactive; negative”; (Species: MOUSE, Strain/Sex: BDF1/FEMALE, Route: INHALATION, Dose: 0, 4, 16, 64 PPM 6 HR/D 5 D/WK FOR 104 WK (STUDY DURATION: 105 WK), Dose: 0, 4, 16, 64 PPM 6 HR/D 5 D/WK FOR 104 WK (STUDY DURATION: 105 WK)) “inactive; negative”; (Species: MOUSE, Strain/Sex: BDF1/MALE, Route: INHALATION, Dose: 0, 4, 16, 64 PPM 6 HR/D 5 D/WK FOR 104 WK (STUDY DURATION: 105 WK), Dose: 0, 4, 16, 64 PPM 6 HR/D 5 D/WK FOR 104 WK (STUDY DURATION: 105 WK)) “inactive; negative”. Further, the carcinogen call is “inactive; negative” (Species: RAT, Strain/Sex: F344/FEMALE, Route: INHALATION, Dose: 0, 4, 20, 100 PPM 6 HR/D 5 D/WK FOR 104 WK (STUDY DURATION: 105 WK), Dose: 0, 4, 20, 100 PPM 6 HR/D 5 D/WK FOR 104 WK (STUDY DURATION: 105 WK)); “inactive; negative” (Species: RAT, Strain/Sex: F344/FEMALE, Route: ORAL); “inactive; negative” (Species: RAT, Strain/Sex: F344/MALE, Route: INHALATION, Dose: 0, 4, 20, 100 PPM 6 HR/D 5 D/WK FOR 104 WK (STUDY DURATION: 105 WK), Dose: 0, 4, 20, 100 PPM 6 HR/D 5 D/WK FOR 104 WK (STUDY DURATION: 105 WK)); “inactive; negative” (Species: RAT, Strain/Sex: F344/MALE, Route: ORAL); “active; positive” (Species: RAT, Strain/Sex: WISTAR/FEMALE, Route: GAVAGE, Dose: 0.4, 2, 10, 50 MG/KG IN ARACHIS OIL 5/WK FOR 13 WK, Dose: 0.4, 2, 10, 50 MG/KG IN ARACHIS OIL 5/WK FOR 13 WK, Tumor Site: Type of Lesion: FORESTOMACH: CARCINOMA); “inactive; negative” (Species: RAT, Strain/Sex: WISTAR/FEMALE, Route: INHALATION, Dose: 0, 3, 30, 90 PPM 6 HR/D 5 D/WK FOR 29 MO (STUDY DURATION: 29 MO), Dose: 0, 3, 30, 90 PPM 6 HR/D 5 D/WK FOR 29 MO (STUDY DURATION: 29 MO)). In addition, the carcinogen call (Species: RAT, Strain/Sex: WISTAR/MALE, Route: GAVAGE, Dose: 0.4, 2, 10, 50 MG/KG IN ARACHIS OIL 5/WK FOR 13 WK, Dose: 0.4, 2, 10, 50 MG/KG IN ARACHIS OIL 5/WK FOR 13 WK, Tumor Site: Type of Lesion: FORESTOMACH: PAPILLOMA, CARCINOMA) was “active; positive” and the carcinogen call (Species: RAT, Strain/Sex: WISTAR/MALE, Route: INHALATION, Dose: 0, 3, 30, 90 PPM 6 HR/D 5 D/WK FOR 29 MO (STUDY DURATION: 29 MO), Dose: 0, 3, 30, 90 PPM 6 HR/D 5 D/WK FOR 29 MO (STUDY DURATION: 29 MO)) was “inactive; negative”.

Consider `CCCCCN(N=O)C(N)=O`, for which the carcinogen call by setting is: (Species: RAT, Strain/Sex: F344/FEMALE, Route: GAVAGE, Dose: 0, 16 MG/ML (TOTAL DOSE 0; 2 MMOL) IN 2 ML ETHYL ACETATE AND CORN OIL (1:2) 2/WK FOR 50 WK (STUDY DURATION: LIFETIME), Dose: 0, 16 MG/ML (TOTAL DOSE 0; 2 MMOL) IN 2 ML ETHYL ACETATE AND CORN OIL (1:2) 2/WK FOR 50 WK (STUDY DURATION: LIFETIME), Tumor Site: Type of Lesion: FORESTOMACH: SQUAMOUS CELL CARCINOMA, LUNG: TUMOR, UTERUS: TUMOR, Tumor Site: Type of Lesion: FORESTOMACH: SQUAMOUS CELL CARCINOMA, LUNG: TUMOR, UTERUS: TUMOR) “active; positive”; (Species: RAT, Strain/Sex: F344/FEMALE, Route: GAVAGE, Dose: 0, 16 MG/ML IN 0.2 ML ETHYL ACETATE AND CORN OIL 2/WK FOR 50 WK (STUDY DURATION: LIFESPAN), Tumor Site: Type of Lesion: FORESTOMACH: TUMOR, LUNG: TUMOR, UTERUS: TUMOR, Tumor Site: Type of Lesion: FORESTOMACH: TUMOR, LUNG: TUMOR, UTERUS: TUMOR) “active; positive”; (Species: RAT, Strain/Sex: F344/MALE, Route: GAVAGE, Dose: 0, 16 MG/ML (TOTAL DOSE 0; 2 MMOL) IN 2 ML ETHYL ACETATE AND CORN OIL (1:2) 2/WK FOR 50 WK (STUDY DURATION: LIFETIME), Dose: 0, 16 MG/ML (TOTAL DOSE 0; 2 MMOL) IN 2 ML ETHYL ACETATE AND CORN OIL (1:2) 2/WK FOR 50 WK (STUDY DURATION: LIFETIME), Tumor Site: Type of Lesion: FORESTOMACH: SQUAMOUS CELL CARCINOMA, LUNG: TUMOR, BODY CAVITY: MESOTHELIOMA, Tumor Site: Type of Lesion: FORESTOMACH: SQUAMOUS CELL CARCINOMA, LUNG: TUMOR, BODY CAVITY: MESOTHELIOMA) “active; positive”; (Species: RAT, Strain/Sex: F344/MALE, Route: GAVAGE, Dose: 0, 16 MG/ML IN 0.2 ML ETHYL ACETATE AND CORN OIL 2/WK FOR 50 WK (STUDY DURATION: LIFESPAN), Tumor Site: Type of Lesion: FORESTOMACH: TUMOR, LUNG: TUMOR: PERITONEUM: MESOTHELIOMA, SKIN: TUMOR, Tumor Site: Type of Lesion: FORESTOMACH: TUMOR, LUNG: TUMOR: PERITONEUM: MESOTHELIOMA, SKIN: TUMOR) “active; positive”.

On to `CC1CN1` (configuration not stated), for which the carcinogen call is “active; positive” (Species: RAT, Strain/Sex: STRAIN-CD/FEMALE, Route: GAVAGE, Dose: 10.5, 20.7 MG/KG (AVE DOSE) IN WATER 2/WK FOR 58 WK (LOW DOSE) OR 27 WK (HIGH DOSE), Tumor Site: Type of Lesion: INTESTINES: ADENOCARCINOMA, BRAIN (CEREBRUM): GLIOMA, EAR (DUCT): SQUAMOUS CELL CARCINOMA, MAMMARY GLAND: ADENOCARCINOMA, Tumor Site: Type of Lesion: INTESTINES: ADENOCARCINOMA, BRAIN (CEREBRUM): GLIOMA, EAR (DUCT): SQUAMOUS CELL CARCINOMA, MAMMARY GLAND: ADENOCARCINOMA) and “active; positive” (Species: RAT, Strain/Sex: STRAIN-CD/MALE, Route: GAVAGE, Dose: 10.5, 20.7 MG/KG (AVE DOSE) IN WATER 2/WK FOR 58 WK (LOW DOSE) OR 27 WK (HIGH DOSE), Tumor Site: Type of Lesion: HEMATOPOIETIC SYSTEM (LEUKEMIA): GRANULOCYTIC LEUKEMIA, BRAIN (CEREBRUM): GLIOMA, EAR (DUCT): SQUAMOUS CELL CARCINOMA, I, Tumor Site: Type of Lesion: HEMATOPOIETIC SYSTEM (LEUKEMIA): GRANULOCYTIC LEUKEMIA, BRAIN (CEREBRUM): GLIOMA, EAR (DUCT): SQUAMOUS CELL CARCINOMA, I).

Take `CC(=O)CCNCN=O`: the carcinogen call by setting is: (Species: HAMSTER, Strain/Sex: SYRIAN/FEMALE, Route: SUBCUTANEOUS, Dose: 20.25, 40.5, 81MG/KG 1/WK FOR LIFE, Dose: 20.25, 40.5, 81MG/KG 1/WK FOR LIFE, Tumor Site: Type of Lesion: NASAL CAVITY: ADENOCARCINOMA, ORAL CAVITY (CHEEK POUCH): SQUAMOUS CELL PAPILLOMA, SQUAMOUS CELL CARCINOMA, COLON: CARCIN, Tumor Site: Type of Lesion: NASAL CAVITY: ADENOCARCINOMA, ORAL CAVITY (CHEEK POUCH): SQUAMOUS CELL PAPILLOMA, SQUAMOUS CELL CARCINOMA, COLON: CARCIN) “active; positive”; (Species: HAMSTER, Strain/Sex: SYRIAN/MALE, Route: SUBCUTANEOUS, Dose: 17.63, 35.25, 70.5 MG/KG 1/WKFOR LIFE, Dose: 17.63, 35.25, 70.5 MG/KG 1/WKFOR LIFE, Tumor Site: Type of Lesion: NASAL CAVITY: ADENOCARCINOMA, ORAL CAVITY (CHEEK POUCH): SQUAMOUS CELL PAPILLOMA, SQUAMOUS CELL CARCINOMA, COLON: CARCIN, Tumor Site: Type of Lesion: NASAL CAVITY: ADENOCARCINOMA, ORAL CAVITY (CHEEK POUCH): SQUAMOUS CELL PAPILLOMA, SQUAMOUS CELL CARCINOMA, COLON: CARCIN) “active; positive”.
